Assay [1] concerns Hepatocyte. The assay is described as follows: Inhibition of glucose production in Sprague-Dawley rat primary hepatocytes grown under gluconeogenic medium assessed as glucose production level at 5 uM incubated for 6 hrs by glucose assay reagent based glucose oxidase method (reference value: 100%). The assay is classed as functional. Set-up: scale not given: the % may be the effect or the level left.

Assay [2] in a line: Inhibition of oxygen consumption rate in isolated mitochondria from rat L6 cells assessed as oxygen consumption level at 1.2 uM (reference value: 100 +/- 1.9%). It is filed as functional. Set-up: scale not given: the % may be the effect or the level left.
Assay [3] in a line: Inhibition of oxygen consumption rate in isolated mitochondria from rat L6 cells assessed as oxygen consumption level at 10 uM (reference value: 100 +/- 1.9%). It is filed as functional. Set-up: scale not given: the % may be the effect or the level left.
For assay [4], the system named is Hepatocyte. The assay is described as follows: Inhibition of glucose production in Sprague-Dawley rat primary hepatocytes grown under gluconeogenic medium assessed as glucose production level at 20 uM incubated for 6 hrs by glucose assay reagent based glucose oxidase method (reference value: 100%). The assay is classed as functional. Set-up: scale not given: the % may be the effect or the level left.

The test system of assay [5] is L6. The assay is described as follows: Stimulation of glucose consumption in rat L6 cells at 10 uM incubated for 12 hrs by glucose assay reagent based glucose oxidase method relative to untreated control. The assay is classed as functional.
Assay [6] in a line: Inhibition of oxygen consumption rate in isolated mitochondria from rat L6 cells assessed as oxygen consumption level at 5 uM (reference value: 100 +/- 1.9%). The arrangement: scale not given: the % may be the effect or the level left. The assay is classed as functional.
The test system of assay [7] is L6. The assay is described as follows: Inhibition of mitochondrial membranes potential in rat L6 cells assessed as mitochondrial membranes potential level at 20 uM incubated for 40 mins by JC1 dye staining based fluorescence assay (reference value: 100 +/- 2.8%). It is filed as functional. Set-up: scale not given: the % may be the effect or the level left.
A short description of assay [8]: Inhibition of oxygen consumption rate in isolated mitochondria from rat L6 cells assessed as oxygen consumption level at 2.5 uM (reference value: 100 +/- 1.9%). The arrangement: scale not given: the % may be the effect or the level left. It is filed as functional.
Assay [9] has as its system L6. The assay is described as follows: Inhibition of oxygen consumption rate in rat L6 cells assessed as oxygen consumption level at 10 uM (reference value: 100 +/- 1.6%). It is filed as functional. The arrangement: scale not given: the % may be the effect or the level left.
For assay [10], the system named is Hepatocyte. The experiment in a line: Inhibition of glucose production in Sprague-Dawley rat primary hepatocytes grown under gluconeogenic medium assessed as glucose production level at 10 uM incubated for 6 hrs by glucose assay reagent based glucose oxidase method (reference value: 100%). The arrangement: scale not given: the % may be the effect or the level left. It is filed as functional.

Assay [11] has as its target Voltage-gated inwardly rectifying potassium channel KCNH2 (Homo sapiens, UniProt Q12809). The assay is described as follows: Inhibition of human ERG by patch clamp assay.
For assay [12], the system named is L6. The assay is described as follows: Inhibition of oxygen consumption rate in rat L6 cells assessed as oxygen consumption level at 20 uM (reference value: 100 +/- 1.6%). The assay is classed as functional. The arrangement: scale not given: the % may be the effect or the level left.
Assay [13] deals with L6. The assay is described as follows: Stimulation of glucose consumption in rat L6 cells at 20 uM incubated for 12 hrs by glucose assay reagent based glucose oxidase method relative to untreated control. It is filed as functional.
Assay [14] deals with T1, AMP-activated protein kinase alpha-1/beta-2/gamma-3 (Homo sapiens) (UniProt O43741+Q13131+Q9UGI9). The assay is described as follows: Activation of human recombinant AMPKalpha1beta2gamma3 expressed in Escherichia coli at 20 uM incubated for 1 hr using serine/threonine kinase substrate.
The target in assay [15] is T2, AMPK alpha2/beta2/gamma1 (Homo sapiens) (UniProt P54646+O43741+P54619). The experiment in a line: Activation of human recombinant AMPKalpha2beta2gamma1 expressed in Escherichia coli at 20 uM incubated for 1 hr using serine/threonine kinase substrate.
Assay [16] deals with T3, AMPK alpha2/beta1/gamma1 (Homo sapiens) (UniProt P54646+P54619+Q9Y478). The assay is described as follows: Activation of human recombinant AMPKalpha2beta1gamma1 expressed in Escherichia coli at 20 uM incubated for 1 hr using serine/threonine kinase substrate.
Assay [17] has as its system L6. The assay is described as follows: Activation of AMPKalpha in rat L6 cells assessed as increase in ACC phosphorylation incubated for 1 hrs by Western blot method. It is filed as cell-based.
For assay [18], the target named is T4, AMP-activated protein kinase alpha-2/beta-1/gamma-3 (Homo sapiens) (UniProt P54646+Q9Y478+Q9UGI9). The experiment in a line: Activation of human recombinant AMPKalpha2beta1gamma3 expressed in Escherichia coli at 20 uM incubated for 1 hr using serine/threonine kinase substrate.
Assay [19] addresses T5, AMP-activated protein kinase (AMPK) alpha-1/beta-1/gamma-1 (Homo sapiens) (UniProt P54619+Q9Y478+Q13131). The assay is described as follows: Activation of human recombinant AMPKalpha1beta1gamma1 expressed in Escherichia coli at 20 uM incubated for 1 hr using serine/threonine kinase substrate.
Assay [20] deals with L6. The assay is described as follows: Inhibition of oxygen consumption rate in rat L6 cells. It is filed as functional, cell-based.
Assay [21] deals with L6. The experiment in a line: Activation of AMPKalpha in rat L6 cells assessed as increase in AMPKalpha Thr172 phosphorylation incubated for 1 hrs by Western blot method. It is filed as cell-based. On the technique in general: In western blotting, separated proteins are transferred to a membrane and probed.
In assay [22] the test system is L6. The experiment in a line: Inhibition of oxygen consumption rate in isolated mitochondria from rat L6 cells. It is filed as functional.
Assay [23] addresses T6, AMPK alpha1/beta2/gamma1 (Homo sapiens) (UniProt O43741+P54619+Q13131). The experiment in a line: Activation of human recombinant AMPKalpha1beta2gamma1 expressed in Escherichia coli at 20 uM incubated for 1 hr using serine/threonine kinase substrate.
Assay [24] deals with T7, AMPK alpha1/beta1/gamma2 (Homo sapiens) (UniProt Q9UGJ0+Q9Y478+Q13131). The experiment in a line: Activation of human recombinant AMPKalpha1beta1gamma2 expressed in Escherichia coli at 20 uM incubated for 1 hr using serine/threonine kinase substrate.
In assay [25] the test system is Hepatocyte. The experiment in a line: Inhibition of glucose production in Sprague-Dawley rat primary hepatocytes grown under gluconeogenic medium incubated for 6 hrs by glucose assay reagent based glucose oxidase method (reference value: 100%). The assay is classed as functional, cell-based.
The target of assay [26] is T8, AMP-activated protein kinase alpha-2/beta-2/gamma-2 (Homo sapiens) (UniProt P54646+O43741+Q9UGJ0). The experiment in a line: Activation of human recombinant AMPKalpha2beta2gamma2 expressed in Escherichia coli at 20 uM incubated for 1 hr using serine/threonine kinase substrate.
Assay [27] addresses T7, AMPK alpha1/beta1/gamma2 (Homo sapiens). The experiment in a line: Activation of human recombinant AMPKalpha1beta1gamma2 expressed in Escherichia coli at 50 nM incubated for 1 hr using serine/threonine kinase substrate.
Assay [28] addresses T1, AMP-activated protein kinase alpha-1/beta-2/gamma-3 (Homo sapiens). The experiment in a line: Activation of human recombinant AMPKalpha1beta2gamma3 expressed in Escherichia coli at 50 nM incubated for 1 hr using serine/threonine kinase substrate.
The target of assay [29] is T8, AMP-activated protein kinase alpha-2/beta-2/gamma-2 (Homo sapiens). The experiment in a line: Activation of human recombinant AMPKalpha2beta2gamma2 expressed in Escherichia coli at 50 nM incubated for 1 hr using serine/threonine kinase substrate.
The target of assay [30] is T2, AMPK alpha2/beta2/gamma1 (Homo sapiens). The experiment in a line: Activation of human recombinant AMPKalpha2beta2gamma1 expressed in Escherichia coli at 50 nM incubated for 1 hr using serine/threonine kinase substrate.
Assay [31] has as its target T4, AMP-activated protein kinase alpha-2/beta-1/gamma-3 (Homo sapiens). The assay is described as follows: Activation of human recombinant AMPKalpha2beta1gamma3 expressed in Escherichia coli at 50 nM incubated for 1 hr using serine/threonine kinase substrate.
The target of assay [32] is T5, AMP-activated protein kinase (AMPK) alpha-1/beta-1/gamma-1 (Homo sapiens). The experiment in a line: Activation of human recombinant AMPKalpha1beta1gamma1 expressed in Escherichia coli at 50 nM incubated for 1 hr using serine/threonine kinase substrate.
Assay [33] has as its target T3, AMPK alpha2/beta1/gamma1 (Homo sapiens). The experiment in a line: Activation of human recombinant AMPKalpha2beta1gamma1 expressed in Escherichia coli at 50 nM incubated for 1 hr using serine/threonine kinase substrate.
In assay [34] the target is T6, AMPK alpha1/beta2/gamma1 (Homo sapiens). The experiment in a line: Activation of human recombinant AMPKalpha1beta2gamma1 expressed in Escherichia coli at 50 nM incubated for 1 hr using serine/threonine kinase substrate.

Activity calls are given as the source filed them. The rule behind the calls is not given here.

17 compounds from ChEMBL document CHEMBL4130473, “Design, synthesis and biological evaluation of 4,7,12,12a-tetrahydro-5H-thieno[3',2':3,4]pyrido[1,2-b]isoquinolines as novel adenosine 5'-monophosphate-activated protein kinase (AMPK) indirect activators for the treatment of type 2 diabetes” (Eur J Med Chem, 2017) can be followed below.

T7 sequence (Q13131 whole entry partner): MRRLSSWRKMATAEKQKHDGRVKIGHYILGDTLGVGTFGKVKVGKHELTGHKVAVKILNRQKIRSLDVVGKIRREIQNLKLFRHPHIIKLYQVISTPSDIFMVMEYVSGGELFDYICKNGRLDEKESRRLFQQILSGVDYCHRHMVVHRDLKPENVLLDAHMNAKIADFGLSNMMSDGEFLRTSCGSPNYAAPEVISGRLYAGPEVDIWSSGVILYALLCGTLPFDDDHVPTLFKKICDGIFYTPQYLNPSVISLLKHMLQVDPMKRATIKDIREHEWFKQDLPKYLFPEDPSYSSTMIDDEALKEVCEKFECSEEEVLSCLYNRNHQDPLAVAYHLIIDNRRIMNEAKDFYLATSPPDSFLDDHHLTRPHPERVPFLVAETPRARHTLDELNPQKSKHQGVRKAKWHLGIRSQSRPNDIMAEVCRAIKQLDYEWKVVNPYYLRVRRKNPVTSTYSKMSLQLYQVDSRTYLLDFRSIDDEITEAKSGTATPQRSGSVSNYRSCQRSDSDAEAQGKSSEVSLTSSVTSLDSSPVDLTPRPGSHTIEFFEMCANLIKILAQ
T7 sequence (Q9UGJ0 whole entry): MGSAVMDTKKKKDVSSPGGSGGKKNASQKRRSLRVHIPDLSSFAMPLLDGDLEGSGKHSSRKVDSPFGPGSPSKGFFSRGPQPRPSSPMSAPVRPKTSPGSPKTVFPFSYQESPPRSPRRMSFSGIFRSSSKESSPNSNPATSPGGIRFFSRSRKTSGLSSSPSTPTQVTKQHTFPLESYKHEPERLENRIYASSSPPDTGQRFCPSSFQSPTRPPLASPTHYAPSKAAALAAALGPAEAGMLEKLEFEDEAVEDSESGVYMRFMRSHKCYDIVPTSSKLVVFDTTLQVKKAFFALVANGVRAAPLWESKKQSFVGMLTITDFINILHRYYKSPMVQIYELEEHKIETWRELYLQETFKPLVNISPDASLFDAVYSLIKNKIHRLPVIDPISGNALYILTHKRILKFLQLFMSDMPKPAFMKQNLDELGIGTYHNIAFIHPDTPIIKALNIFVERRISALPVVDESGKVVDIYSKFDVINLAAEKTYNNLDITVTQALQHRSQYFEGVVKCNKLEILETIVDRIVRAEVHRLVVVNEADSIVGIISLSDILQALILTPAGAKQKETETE
T7 sequence (Q9Y478 2-270 partner limits assumed): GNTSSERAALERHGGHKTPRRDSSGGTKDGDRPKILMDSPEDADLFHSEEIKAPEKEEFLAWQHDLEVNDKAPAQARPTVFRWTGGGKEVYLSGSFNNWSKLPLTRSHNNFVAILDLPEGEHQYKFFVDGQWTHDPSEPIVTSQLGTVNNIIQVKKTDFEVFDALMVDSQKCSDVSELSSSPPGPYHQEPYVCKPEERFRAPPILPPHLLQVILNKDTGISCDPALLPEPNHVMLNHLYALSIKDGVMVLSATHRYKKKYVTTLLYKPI
T5 sequence (P54619 whole entry): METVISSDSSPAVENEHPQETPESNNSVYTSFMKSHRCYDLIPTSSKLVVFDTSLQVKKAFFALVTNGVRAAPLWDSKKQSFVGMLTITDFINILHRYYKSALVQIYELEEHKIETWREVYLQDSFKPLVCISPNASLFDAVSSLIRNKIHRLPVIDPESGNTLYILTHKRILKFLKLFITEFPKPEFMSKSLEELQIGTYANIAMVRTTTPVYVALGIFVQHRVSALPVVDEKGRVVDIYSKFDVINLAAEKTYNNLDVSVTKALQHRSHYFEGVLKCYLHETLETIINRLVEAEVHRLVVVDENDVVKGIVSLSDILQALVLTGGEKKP
T5 sequence (Q13131 whole entry partner): as the sequence (Q13131 whole entry partner) above
T5 sequence (Q9Y478 2-270 partner limits assumed): as the sequence (Q9Y478 2-270 partner limits assumed) above
T3 sequence (P54619 whole entry partner): as the sequence (P54619 whole entry) above
T3 sequence (P54646 whole entry): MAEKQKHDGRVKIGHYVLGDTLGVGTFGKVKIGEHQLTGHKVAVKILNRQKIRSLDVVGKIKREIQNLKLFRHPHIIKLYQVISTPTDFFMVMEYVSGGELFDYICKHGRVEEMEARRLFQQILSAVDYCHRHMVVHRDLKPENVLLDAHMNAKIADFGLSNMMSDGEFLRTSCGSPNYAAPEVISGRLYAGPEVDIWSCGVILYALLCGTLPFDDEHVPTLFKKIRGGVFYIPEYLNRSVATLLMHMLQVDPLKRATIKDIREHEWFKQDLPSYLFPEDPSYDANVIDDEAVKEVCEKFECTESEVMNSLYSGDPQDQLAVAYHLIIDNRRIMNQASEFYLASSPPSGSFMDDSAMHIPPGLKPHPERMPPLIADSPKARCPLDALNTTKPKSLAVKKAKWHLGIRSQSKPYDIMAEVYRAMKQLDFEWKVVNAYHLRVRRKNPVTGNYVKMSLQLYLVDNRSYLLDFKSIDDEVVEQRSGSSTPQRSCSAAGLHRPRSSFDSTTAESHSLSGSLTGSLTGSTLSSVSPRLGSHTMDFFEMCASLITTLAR
T3 sequence (Q9Y478 2-270 partner limits assumed): as the sequence (Q9Y478 2-270 partner limits assumed) above
T6 sequence (O43741 whole entry, looked up): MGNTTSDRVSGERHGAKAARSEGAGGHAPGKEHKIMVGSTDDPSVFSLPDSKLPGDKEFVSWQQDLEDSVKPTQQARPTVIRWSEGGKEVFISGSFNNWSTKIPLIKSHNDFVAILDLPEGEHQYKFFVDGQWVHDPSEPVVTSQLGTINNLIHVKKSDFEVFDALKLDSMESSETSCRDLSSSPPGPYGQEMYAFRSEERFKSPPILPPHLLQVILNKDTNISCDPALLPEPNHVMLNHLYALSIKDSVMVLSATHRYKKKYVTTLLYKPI
T6 sequence (P54619 whole entry, looked up): as the sequence (P54619 whole entry) above
T6 sequence (Q13131 whole entry, looked up): as the sequence (Q13131 whole entry partner) above

`COc1ccc2cc3[n+](cc2c1OC)CCc1cc2c(cc1-3)OCO2.[Cl-]` [BERBERINE CHLORIDE]: the Activity in the assay on Hepatocyte [1] is 68.8%; in assay [2], 78.9%; in assay [3] it was 59.2%; in the assay on Hepatocyte [4], 49.8%; in the assay with L6 [5], 173.1%; in assay [6], 63.6%. Also, the Activity with L6 [7] is 91.2%; in [8], 69.3%; in the assay on L6 [9], 91.9%; in the assay with Hepatocyte [10], 64.7%; with L6 [12], 75%. Besides, in assay [11], the IC50 (in general, the concentration that gives 50% inhibition) was determined as 3.1 µM.
On to `Cc1ccc(C)c2c1CC1c3ccsc3CCN1C2` (stereo not drawn), for which, in the assay with L6 [13], the Activity was found to be 95.6%.
`COc1ccc(OC)c2c1CC1c3cc(COC(C)=O)sc3CCN1C2` (stereo not drawn) came in with an Activity with L6 [13] of 107.6%.
In the case of `COc1ccc(OC)c2c1CC1c3ccsc3CCN1C2` (stereo not drawn), the Activity with Hepatocyte [1] was found to be 56.7%; in assay [2], 78.9%; in assay [3], 59.2%; with Hepatocyte [4] it was 26.1%; in the assay on L6 [13], 178.1%; in assay [6], 63.6%. The Activity in the assay with L6 [7] was 81.5%; in assay [8], 69.3%; in the assay with L6 [17], “Dose-dependent effect”; in the assay on L6 [9], 92.9%; in the assay with L6 [21], “Dose-dependent effect”; in the assay with Hepatocyte [10], 46.6%. For the same compound, in the assay with L6 [12], the Activity is recorded as 90.4%. Also, the result in assay [14], in assay [15], in assay [16], in assay [18], in [19] and in assay [23] was inactive. For the same compound, the outcome in assay [24] and in assay [26] was inactive. In addition, the inhibition result in the assay on L6 [20], in the assay on L6 [22] and with Hepatocyte [25] was “Dose-dependent effect” each time.
`c1cc2c(s1)CCN1Cc3cc4c(cc3CC21)OCO4` (stereo not drawn): the Activity in the assay with L6 [13] is 102.7%.
Same read-out and setting: next, `COc1ccc(OC)c2c1CC1c3cc(C(=O)O)sc3CCN1C2` (stereo not drawn): 116%; `CC(=O)Nc1ccc2c(c1)CC1c3ccsc3CCN1C2` (stereo not drawn): 107.7%; `COc1ccc(OC)c2c1CC1c3cc(C(=O)N(C)C)sc3CCN1C2` (stereo not drawn): 110.5%.
Turning to `N#Cc1c(O)c2c(-c3ccc(-c4ccccc4O)cc3)csc2[nH]c1=O`, the outcome in [27], in assay [31], in [32] and in assay [33] was Active. The outcome in [28], in assay [29], in [30] and in [34] was inactive.
On to `c1cncc(Cc2cc3c(s2)CCN2Cc4ccccc4CC32)c1` (stereo not drawn), for which the Activity in the assay on L6 [13] stood at 151.9%.
On the same count and under the same terms, to `COc1cc2c(c(OC)c1OC)CN1CCc3sccc3C1C2` (stereo not drawn) belongs 131.1%.
For `COc1cc2c(cc1OC)CN1CCc3sccc3C1C2` (stereo not drawn), the Activity in the assay on L6 [13] worked out at 114.4%.
The same measure, in the same setting: next, `COc1ccc(OC)c2c1CC1c3cc(CO)sc3CCN1C2` (stereo not drawn): 109.5%.
Take `COc1ccc(OC)c2c1CC1c3cc(C=O)sc3CCN1C2` (stereo not drawn): the Activity in the assay with L6 [13] was determined as 105.9%.
On the same count and under the same terms, next, `COc1cc(Cl)c2c(c1O)CN1CCc3sccc3C1C2` (stereo not drawn): 97.8%; `COc1ccc(OC)c2c1CC1c3cc(CN4CCCC4)sc3CCN1C2` (stereo not drawn): 131.8%; `COc1ccc(OC)c2c1CC1c3cc(CN4CCOCC4)sc3CCN1C2` (stereo not drawn): 101%.
